From patent US20240343694A1, “PYRIMIDINE DERIVATIVE, METHOD FOR PREPARING SAME, AND PHARMACEUTICAL COMPOSITION FOR PREVENTING OR TREATING CANCER COMPRISING SAME AS ACTIVE INGREDIENT” (KOREA RESERARCH INSTITUTE OF CHEMICAL TECHNOLOGY, priority 2021, published 2024) come the findings set out here.

pIC50: −log10 of the molar value. Some results are limits rather than exact numbers.

For one assay, the target named is EGFR del19 (Homo sapiens (Human), UniProt P00533, DEL746-750). Put plainly: HTRF inhibitory activity against EGFR mutant enzyme (EGFR del19). In kind it is biochemical. The conditions noted are these: recombinant enzyme, 37° C. for 2 hours. The method, boiled down:
(§1)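 IC50 was derived from 7 concentrations by HTRF: Eu-anti-pTyr and streptavidin-XL665 for 1 h at room temperature, with the 615/665 nm ratio read. The kinase reaction ran 2 h at 37 °C in Tris pH 7.5 buffer with ATP (stated 50 mM) and biotinylated peptide (0.5 mM). Enzyme was preincubated with compound before substrate was added.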
(In general: Time-resolved FRET reads energy transfer from a long-lived donor to a nearby acceptor.)

The subject of the next assay is Ba/F3 HER2 G776delinsVC. Put plainly: Growth inhibition of Ba/F3 HER2 mutant cells (CellTiter-Glo). In kind it is cell-based. The settings on record: Mus musculus, BaF3, 72 hours. Here is the method: (§2) The activity of the compounds of the present invention against Ba/F3 HER2 A775_G776insYVMA and Ba/F3 HER2 G776delinsVC mutant cell lines was measured using the CellTiter-Glo system purchased from Promega as follows. CellTiter-Glo assay is a method to measure cell viability by monitoring ATP present in cells. Ba/F3 HER2 A775_G776insYVMA and Ba/F3 HER2 G776delinsVC mutant cell lines were purchased from Crown Biosciences. Ba/F3 HER2 A775_G776insYVMA and Ba/F3 HER2 G776delinsVC mutant cell lines were cultured in RPMI containing 10% FBS and 1% penicillin-streptomycin with 1 μg/mL of puromycin in a CO2 incubator at 37° C.
(§3) The analysis of the ability of the compounds to inhibit the growth of HER2 mutant cells was performed according to the following method. 1,000 cells/100 μL were seeded in a 96-well cell culture plate, and 24 hours thereafter, the compounds represented by Formula 1 were treated with 0 μM, 0.01 μM, 0.03 μM, 0.1 μM, 0.3 μM, 1 μM, 3 μM, and 10 μM. After reacting for 72 hours, the plate treated with the compounds were left at room temperature for 30 minutes, 100 μL of a reagent was added thereto, and then shaken at room temperature for 10 minutes. Finally, using equipment, the ratio of […] was measured to confirm the cell growth inhibition ability of the compounds. The measured values at 8 compound concentrations were analyzed using the Prism program (version 5.01, Graphpad Software, Inc.), and the IC50 (μM) values, which are measures of the compounds' inhibitory ability, were calculated.

Assay [1] has as its system Ba/F3 HER2 A775_G776insYVMA. The assay is described as above. In kind it is cell-based. The settings on record: Mus musculus, BaF3, 72 hours. As to the method: as §2, §3
Assay [2] relates to Ba/F3 EGFR V769_D770insASV. Nature of the assay: Growth inhibition of Ba/F3 EGFR mutant cells (CellTiter-Glo). In kind it is cell-based. The settings on record: 72 hours. Here is the method: (§4) The activity of the compounds of the present invention against Ba/F3 EGFR V769_D770insASV and Ba/F3 EGFR D770_N771insSVD mutant cell lines was measured using the CellTiter-Glo system purchased from Promega as follows. CellTiter-Glo assay is a method to measure cell viability by monitoring ATP present in cells. Ba/F3 EGFR V769_D770insASV and Ba/F3 EGFR D770_N771insSVD mutant cell lines were purchased from Crown Biosciences. Ba/F3 EGFR V769_D770insASV and Ba/F3 EGFR D770_N771insSVD mutant cell lines were cultured in RPMI containing 10% FBS and 1% penicillin-streptomycin with 1 μg/mL of puromycin in a 5% CO2 incubator at 37° C.
as §3, with “growth of EGFR mutant cells” for “growth of HER2 mutant cells”, “μM. After incubating for 72” for “μM. After reacting for 72”, “reagent was further added thereto,” for “reagent was added thereto,”
A general note: ATP-based viability assays read luminescence as a measure of living cells.

For another assay, the target named is HER2 A775_G776insYVMA (Homo sapiens (Human), UniProt P04626, INS775YVMA). Put plainly: HTRF inhibitory activity against HER2 mutant enzyme. In kind it is biochemical. The conditions noted are these: recombinant enzyme, 37° C. for 2 hours. The method, boiled down:
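Recombinant HER2 A775_G776insYVMA preincubated with compound, then […] and biotinylated peptide ([…]) added; 2 h at 37 °C in Tris-HCl pH 7.5 buffer with MgCl2, DTT. HTRF detection (Eu anti-phosphotyrosine/streptavidin-XL665); IC50 from 7 concentrations.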

A further assay deals with EGFR A763_Y764insFHEA (Homo sapiens (Human), UniProt P00533, INS763FHEA). Put plainly: HTRF inhibitory activity against EGFR mutant enzyme (EGFR A763_Y764insFHEA). In kind it is biochemical. The conditions noted are these: recombinant enzyme, 37° C. for 2 hours. The method in brief: as §1
In assay [3] the test system is Ba/F3 EGFR D770_N771insSVD. Nature of the assay: Growth inhibition of Ba/F3 EGFR mutant cells (CellTiter-Glo). In kind it is cell-based. The settings on record: Ba/F3 EGFR-D770-N771ins_SVD, 72 hours. As to the method:
as §4
as §3, with “growth of EGFR mutant cells” for “growth of HER2 mutant cells”, “μM. After incubating for 72” for “μM. After reacting for 72”, “reagent was further added thereto,” for “reagent was added thereto,”

EGFR del19, sequence (P00533 other isoform, or with tags, fused parts or gaps del 1-668/del 746-750 limits assumed): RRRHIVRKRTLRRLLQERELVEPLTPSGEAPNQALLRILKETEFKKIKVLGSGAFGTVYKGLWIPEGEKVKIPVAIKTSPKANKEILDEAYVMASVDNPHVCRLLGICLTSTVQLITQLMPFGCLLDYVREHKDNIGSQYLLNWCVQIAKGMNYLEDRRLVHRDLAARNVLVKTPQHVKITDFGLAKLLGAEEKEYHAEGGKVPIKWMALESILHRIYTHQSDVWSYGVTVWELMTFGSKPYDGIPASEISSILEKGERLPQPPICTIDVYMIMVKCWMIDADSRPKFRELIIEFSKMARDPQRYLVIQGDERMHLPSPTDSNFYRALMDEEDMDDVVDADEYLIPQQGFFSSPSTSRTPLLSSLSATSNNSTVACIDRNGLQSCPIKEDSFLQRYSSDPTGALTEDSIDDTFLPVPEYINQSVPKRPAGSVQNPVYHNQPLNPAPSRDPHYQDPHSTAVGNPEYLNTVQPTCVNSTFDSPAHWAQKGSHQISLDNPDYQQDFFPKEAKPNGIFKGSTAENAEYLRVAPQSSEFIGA
EGFR A763_Y764insFHEA, sequence (P00533 other isoform, or with tags, fused parts or gaps del 1-694/ins FHEA behind 763 limits assumed): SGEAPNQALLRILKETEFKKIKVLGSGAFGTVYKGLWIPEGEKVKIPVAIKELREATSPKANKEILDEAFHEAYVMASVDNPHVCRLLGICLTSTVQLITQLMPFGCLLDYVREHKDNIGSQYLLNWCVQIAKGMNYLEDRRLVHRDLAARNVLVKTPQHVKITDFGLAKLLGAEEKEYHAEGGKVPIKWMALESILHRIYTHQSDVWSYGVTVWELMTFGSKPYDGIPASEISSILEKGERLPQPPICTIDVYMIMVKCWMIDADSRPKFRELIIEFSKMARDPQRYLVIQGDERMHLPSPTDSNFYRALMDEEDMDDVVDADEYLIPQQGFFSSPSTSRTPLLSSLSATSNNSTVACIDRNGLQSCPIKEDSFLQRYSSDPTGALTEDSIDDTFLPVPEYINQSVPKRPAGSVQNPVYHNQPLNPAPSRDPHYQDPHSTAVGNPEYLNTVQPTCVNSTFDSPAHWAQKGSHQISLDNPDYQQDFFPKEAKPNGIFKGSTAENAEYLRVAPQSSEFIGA
HER2 A775_G776insYVMA, sequence (P04626 other isoform, or with tags, fused parts or gaps del 1-675/ins YVMA behind 775 limits assumed): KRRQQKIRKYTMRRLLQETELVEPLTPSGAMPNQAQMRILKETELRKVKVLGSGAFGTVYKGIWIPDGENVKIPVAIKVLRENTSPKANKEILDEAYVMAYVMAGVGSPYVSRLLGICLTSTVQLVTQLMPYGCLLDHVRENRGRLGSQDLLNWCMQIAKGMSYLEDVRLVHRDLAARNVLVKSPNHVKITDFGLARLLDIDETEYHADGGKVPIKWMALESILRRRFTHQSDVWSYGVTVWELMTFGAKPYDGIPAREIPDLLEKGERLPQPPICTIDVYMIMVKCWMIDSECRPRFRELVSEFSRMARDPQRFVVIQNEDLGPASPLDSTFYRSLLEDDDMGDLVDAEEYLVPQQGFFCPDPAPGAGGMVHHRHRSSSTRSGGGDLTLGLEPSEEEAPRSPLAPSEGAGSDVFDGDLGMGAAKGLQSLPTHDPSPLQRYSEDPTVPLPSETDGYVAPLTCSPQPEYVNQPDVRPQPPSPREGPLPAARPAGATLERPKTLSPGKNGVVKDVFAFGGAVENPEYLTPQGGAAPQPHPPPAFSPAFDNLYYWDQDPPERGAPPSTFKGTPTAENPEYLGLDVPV

For orientation: pIC50 means the IC50 on a negative log10 scale, so that one unit is a factor of ten. Turning to `C=CC(=O)Nc1cc(Nc2ncc(Cl)c(Nc3ccccc3NS(=O)(=O)CC)n2)c(OC)cc1N(C)CCN(C)C` [Example 4, N-(5-((5-chloro-4-((2-(ethylsulfonamido)phenyl)amino)pyrimidin-2-yl)amino)-2-((2-(dimethylamino)ethyl)(methyl)amino)-4-methoxyphenyl)acrylamide], the pIC50 at EGFR del19 was more than 9.00; with Ba/F3 HER2 G776delinsVC it was 7.52 to 8.00; in assay [1] it was less than 7.00; in assay [2], 7.52 to 8.00; on HER2 A775_G776insYVMA it was 7.43; on EGFR A763_Y764insFHEA it was 8.70.

Take `C=CC(=O)Nc1cc(Nc2ncc(Cl)c(Nc3ccccc3NS(C)(=O)=O)n2)c(OC)cc1OCCN1CCCC1` [Example 22, N-(5-((5-chloro-4-((2-(methylsulfonamido)phenyl)amino)pyrimidin-2-yl)amino)-4-methoxy-2-(2-(pyrrolidin-1-yl)ethoxy)phenyl)acrylamide]: the pIC50 on EGFR del19 was more than 9.00; with Ba/F3 HER2 G776delinsVC it was 7.52 to 8.00; in assay [1], less than 7.00; in assay [2], less than 7.00; in assay [3] it was less than 7.00; on HER2 A775_G776insYVMA, 7.66. Also, the pIC50 at EGFR A763_Y764insFHEA was 8.52.

With `C=CC(=O)Nc1cc(Nc2ncc(Cl)c(Nc3ccccc3NS(C)(=O)=O)n2)c(OC)cc1N(C)CCNC(C)C` [Example 24, N-(5-((5-chloro-4-((2-(methylsulfonamido)phenyl)amino)pyrimidin-2-yl)amino)-2-((2-(isopropylamino)ethyl)(methyl)amino)-4-methoxyphenyl)acrylamide], the pIC50 was more than 9.00 at EGFR del19; 7.52 to 8.00 with Ba/F3 HER2 G776delinsVC; less than 7.00 in assay [1]; less than 7.00 in assay [2]; less than 7.00 in assay [3]; 7.57 on HER2 A775_G776insYVMA. Further, the pIC50 at EGFR A763_Y764insFHEA is 8.52.

On to `C=CC(=O)Nc1cc(Nc2ncc(Cl)c(Nc3ccccc3NS(C)(=O)=O)n2)c(OC)cc1N(C)CCNC` [Example 25, N-(5-((5-chloro-4-((2-(methylsulfonamido)phenyl)amino)pyrimidin-2-yl)amino)-4-methoxy-2-(methyl(2-(methylamino)ethyl)amino)phenyl)acrylamide], for which the pIC50 on EGFR del19 was more than 9.00; in the assay on Ba/F3 HER2 G776delinsVC it was less than 7.00; in assay [1] it was less than 7.00; in assay [2] it was less than 7.00; in assay [3] it was less than 7.00; on HER2 A775_G776insYVMA it was 8.22. The pIC50 at EGFR A763_Y764insFHEA was more than 9.00.

Regarding `C=CC(=O)Nc1cc(Nc2ncc(Cl)c(Nc3ccccc3N(C)S(C)(=O)=O)n2)c(OC)cc1N(C)CCN(C)C` [Example 29, N-(5-((5-chloro-4-((2-(N-methylmethylsulfonamido)phenyl)amino)pyrimidin-2-yl)amino)-2-((2-(dimethylamino)ethyl)(methyl)amino)-4-methoxyphenyl)acrylamide], the negative logarithm of the IC50 (pIC50) on EGFR del19 is more than 9.00; in the assay on Ba/F3 HER2 G776delinsVC, 7.52 to 8.00; in assay [1], 7.00 to 7.30; in assay [2], 7.52 to 8.00; in assay [3], 7.52 to 8.00; on HER2 A775_G776insYVMA, 8.30. Also, the pIC50 on EGFR A763_Y764insFHEA was more than 9.00.

As to `C=CC(=O)Nc1cc(Nc2ncc(Cl)c(Nc3ccccc3N(C)S(=O)(=O)CC)n2)c(OC)cc1N(C)CCN(C)C` [Example 30, N-(5-((5-chloro-4-((2-(N-methylethylsulfonamido)phenyl)amino)pyrimidin-2-yl)amino)-2-((2-(dimethylamino)ethyl)(methyl)amino)-4-methoxyphenyl)acrylamide], the negative-log IC50 (pIC50) was more than 9.00 on EGFR del19; more than 8.00 in the assay on Ba/F3 HER2 G776delinsVC; 7.30 to 7.52 in assay [1]; more than 8.00 in assay [2]; 7.30 to 7.52 in assay [3]; 8.40 on HER2 A775_G776insYVMA. Besides, the pIC50 at EGFR A763_Y764insFHEA was more than 9.00.

In the case of `C=CC(=O)Nc1cc(Nc2ncc(Cl)c(Nc3ccccc3N(CC)S(C)(=O)=O)n2)c(OC)cc1N(C)CCN(C)C` [Example 31, N-(5-((5-chloro-4-((2-(N-ethylmethylsulfonamido)phenyl)amino)pyrimidin-2-yl)amino)-2-((2-(dimethylamino)ethyl)(methyl)amino)-4-methoxyphenyl)acrylamide], the pIC50 on EGFR del19 is more than 9.00; in the assay with Ba/F3 HER2 G776delinsVC, more than 8.00; in assay [1], more than 8.00; in assay [2] it was more than 8.00; in assay [3], 7.30 to 7.52; at HER2 A775_G776insYVMA, 9.52. For the same compound, the pIC50 at EGFR A763_Y764insFHEA is more than 9.00.

For `C=CC(=O)Nc1cc(Nc2ncc(Cl)c(Nc3ccccc3N(C(C)C)S(C)(=O)=O)n2)c(OC)cc1N(C)CCN(C)C` [Example 32, N-(5-((5-chloro-4-((2-(N-isopropylmethylsulfonamido)phenyl)amino)pyrimidin-2-yl)amino)-2-((2-(dimethylamino)ethyl)(methyl)amino)-4-methoxyphenyl)acrylamide], the pIC50 on EGFR del19 was more than 9.00; in the assay on Ba/F3 HER2 G776delinsVC, more than 8.00; in assay [1], 7.30 to 7.52; in assay [2], 7.30 to 7.52; in assay [3] it was 7.30 to 7.52; at HER2 A775_G776insYVMA, 8.10. The pIC50 at EGFR A763_Y764insFHEA was 9.00.

For the compound `C=CC(=O)Nc1cc(Nc2ncc(Cl)c(Nc3ccccc3N(CC)S(=O)(=O)CC)n2)c(OC)cc1N(C)CCN(C)C` [Example 33, N-(5-((5-chloro-4-((2-(N-ethylethylsulfonamido)phenyl)amino)pyrimidin-2-yl)amino)-2-((2-(dimethylamino)ethyl)(methyl)amino)-4-methoxyphenyl)acrylamide], the pIC50 at EGFR del19 is more than 9.00; in the assay on Ba/F3 HER2 G776delinsVC it was more than 8.00; in assay [1] it was 7.30 to 7.52; in assay [2], more than 8.00; in assay [3] it was 7.30 to 7.52; on HER2 A775_G776insYVMA it was 8.15. Further, the negative-log IC50 (pIC50) at EGFR A763_Y764insFHEA was more than 9.00.

As for `C=CC(=O)Nc1cc(Nc2ncc(Cl)c(Nc3cccc(Cl)c3N(C)S(C)(=O)=O)n2)c(OC)cc1N(C)CCN(C)C` [Example 35, N-(5-((5-chloro-4-((3-chloro-2-(N-methylmethylsulfonamido)phenyl)amino)pyrimidin-2-yl)amino)-2-((2-(dimethylamino)ethyl)(methyl)amino)-4-methoxyphenyl)acrylamide], the pIC50 is more than 9.00 at EGFR del19; more than 8.00 in the assay on Ba/F3 HER2 G776delinsVC; 7.00 to 7.30 in assay [1]; 7.30 to 7.52 in assay [2]; 7.30 to 7.52 in assay [3]; 7.57 at HER2 A775_G776insYVMA. Further, the pIC50 on EGFR A763_Y764insFHEA is 8.52.

Take `C=CC(=O)Nc1cc(Nc2ncc(F)c(Nc3cccc4c3N(C(C)=O)CC4)n2)c(OC)cc1N(C)CCN(C)C` [Example 101, N-(5-((4-((1-acetylindolin-7-yl)amino)-5-fluoropyrimidin-2-yl)amino)-2-((2-(dimethylamino)ethyl)(methyl)amino)-4-methoxyphenyl)acrylamide]: the negative-log IC50 (pIC50) at EGFR del19 is 9.00; in the assay with Ba/F3 HER2 G776delinsVC, more than 8.00; in assay [1] it was 7.00 to 7.30; in assay [2], 7.52 to 8.00; in assay [3], 7.30 to 7.52; on EGFR A763_Y764insFHEA it was 8.30.
